In ChEMBL document CHEMBL1151531, “Taxol structure-activity relationships: synthesis and biological evaluation of taxol analogs modified at C-7” (Bioorg Med Chem Lett, 1994):

Key:
[1] = system: HCT-116; test: In vitro inhibition of proliferation of human colon cancer line 116 after 72 hrs incubation.; assay type: functional, cell-based; conditions: HCT-116, 72 h
[2] = molecular target: Tubulin alpha chain (Sus scrofa) (UniProt P02550); test: Initial tubulin polymerization rate relative to taxol.; assay type: functional
[3] = system: Mus musculus; test: Compound was evaluated in vivo against i.p. implanetd M109 tumor on day 5 and 8 post implantation at a dose of 60 mg/kg/injection when administered i.p; assay type: functional; conditions: route intraperitoneal
[4] = system: Mus musculus; test: Compound was evaluated in vivo against i.p. implanetd M109 tumor on day 5 and 8 post implantation at a dose of 50 (mg/kg/inj)when administered i.p; assay type: functional
[5] = system: Mus musculus; test: Compound was evaluated in vivo against i.p. implanetd M109 tumor on day 5 and 8 post implantation when administered i.p.; Scheduled; assay type: functional, organism-based
[6] = system: Mus musculus; test: Compound was evaluated in vivo against i.p. implanetd M109 tumor on day 5 and 8 post implantation at a dose of 40 mg/kg/injection when administered i.p; assay type: functional; conditions: route intraperitoneal
[7] = system: Mus musculus; test: Compound was evaluated in vivo against i.p. implanted M109 tumor on day 5 and 8 post implantation at a dose of 50-75 mg/kg/injection when administered i.p; assay type: functional
[8] = system: Mus musculus; test: Compound was evaluated in vivo against i.p. implanetd M109 tumor on day 5 and 8 post implantation at a dose of 132 mg/kg/injection when administered i.p; assay type: functional; conditions: route intraperitoneal
[9] = system: Mus musculus; test: Compound was evaluated in vivo against i.p. implanetd M109 tumor on day 5 and 8 post implantation at a dose of 64 mg/kg/injection when administered i.p; assay type: functional; conditions: route intraperitoneal
[10] = system: Mus musculus; test: Compound was evaluated in vivo against i.p. implanetd M109 tumor on day 5 and 8 post implantation at a dose of 80 mg/kg/injection when administered i.p; assay type: functional; conditions: route intraperitoneal
[11] = system: Mus musculus; test: Compound was evaluated in vivo against i.p. implanetd M109 tumor on day 5 and 8 post implantation at a dose of 30 mg/kg/injection when administered i.p; assay type: functional; conditions: route intraperitoneal
[12] = system: Mus musculus; test: Compound was evaluated in vivo against i.p. implanetd M109 tumor on day 5 and 8 post implantation at a dose of 32 mg/kg/injection when administered i.p; assay type: functional; conditions: route intraperitoneal

Tubulin alpha chain (Sus scrofa), sequence (P02550 whole entry, looked up): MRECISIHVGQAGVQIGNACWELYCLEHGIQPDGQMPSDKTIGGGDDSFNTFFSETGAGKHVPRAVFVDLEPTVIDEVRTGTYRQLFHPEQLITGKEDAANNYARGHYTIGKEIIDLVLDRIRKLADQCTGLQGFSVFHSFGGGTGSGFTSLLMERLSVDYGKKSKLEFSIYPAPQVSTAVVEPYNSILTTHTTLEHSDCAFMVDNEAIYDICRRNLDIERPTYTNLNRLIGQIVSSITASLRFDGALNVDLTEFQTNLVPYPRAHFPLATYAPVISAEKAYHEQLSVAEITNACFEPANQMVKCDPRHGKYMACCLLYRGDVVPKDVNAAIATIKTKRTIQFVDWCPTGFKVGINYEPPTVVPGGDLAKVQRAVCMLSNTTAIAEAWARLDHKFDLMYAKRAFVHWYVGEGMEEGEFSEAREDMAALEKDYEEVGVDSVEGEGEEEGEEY

SMILES | IC50 [1] | Initial rate ratio [2] | further results
CC(=O)O[C@@]12CO[C@@H]1C[C@H](O)[C@@]1(C)C(=O)[C@H](O)C3=C(C)[C@@H](OC(=O)[C@H](O)[C@@H](NC(=O)OC(C)(C)C)c4ccccc4)C[C@@](O)([C@@H](OC(=O)c4ccccc4)[C@H]21)C3(C)C [DOCETAXEL] | 3 nM | 2 | Max T/C [5]: Scheduled
CC(=O)O[C@H]1C(=O)[C@@]2(C)[C@H]([C@H](OC(=O)c3ccccc3)[C@]3(O)C[C@H](OC(=O)[C@H](O)[C@@H](NC(=O)c4ccccc4)c4ccccc4)C(C)=C1C3(C)C)[C@]1(OC(C)=O)CO[C@@H]1C[C@@H]2O [PACLITAXEL] |  |  | Max T/C [7]: 276
CC(=O)O[C@H]1C(=O)[C@@]2(C)C([C@H](OC(=O)c3ccccc3)[C@]3(O)C[C@H](OC(=O)[C@H](O)[C@@H](NC(=O)OC(C)(C)C)c4ccccc4)C(C)=C1C3(C)C)[C@]1(OC(C)=O)CO[C@@H]1C[C@H]2F (stereo partly drawn) | 4.7 nM | 0.8 | Max T/C [6]: 147
CC(=O)O[C@H]1C(=O)[C@@]2(C)C([C@H](OC(=O)c3ccccc3)[C@]3(O)C[C@H](OC(=O)[C@H](O)[C@@H](NC(=O)c4ccccc4)c4ccccc4)C(C)=C1C3(C)C)[C@]1(OC(C)=O)CO[C@@H]1C[C@H]2F (stereo partly drawn) | 11 nM | 1.45 | Max T/C [8]: 185
CC(=O)O[C@H]1C(=O)[C@]2(C)C(OC(=O)NCCCC(=O)O)C[C@H]3OC[C@@]3(OC(C)=O)C2[C@H](OC(=O)c2ccccc2)[C@]2(O)C[C@H](OC(=O)[C@H](O)[C@@H](NC(=O)c3ccccc3)c3ccccc3)C(C)=C1C2(C)C (stereo partly drawn) | > 3900 nM | 0.71 | 
CC(=O)O[C@H]1C(=O)[C@]2(C)C(O[Si](C)(C)c3ccccc3)C[C@H]3OC[C@@]3(OC(C)=O)C2[C@H](OC(=O)c2ccccc2)[C@]2(O)C[C@H](OC(=O)[C@H](O)[C@@H](NC(=O)c3ccccc3)c3ccccc3)C(C)=C1C2(C)C (stereo partly drawn) | > 78 nM | 0 | 
CC(=O)O[C@H]1C(=O)[C@]23C[C@H]2C[C@H]2OC[C@@]2(OC(C)=O)C3[C@H](OC(=O)c2ccccc2)[C@]2(O)C[C@H](OC(=O)[C@H](O)[C@@H](NC(=O)c3ccccc3)c3ccccc3)C(C)=C1C2(C)C (stereo partly drawn) | 8 nM | 0.56 | Max T/C [10]: 156

More lines, main results first:

IC50 [1] | Initial rate ratio [2] | SMILES | further results
> 60 nM | 0 | CC(=O)O[C@H]1C(=O)[C@]2(C)C(O[Si](C)(C)C)C[C@H]3OC[C@@]3(OC(C)=O)C2[C@H](OC(=O)c2ccccc2)[C@]2(O)C[C@H](OC(=O)[C@H](O)[C@@H](NC(=O)c3ccccc3)c3ccccc3)C(C)=C1C2(C)C (stereo partly drawn) | 
5 nM | 1.31 | CC(=O)O[C@H]1C(=O)[C@]2(C)C=C[C@H]3OC[C@@]3(OC(C)=O)C2[C@H](OC(=O)c2ccccc2)[C@]2(O)C[C@H](OC(=O)[C@H](O)[C@@H](NC(=O)c3ccccc3)c3ccccc3)C(C)=C1C2(C)C (stereo partly drawn) | Max T/C [3]: 161
4 nM | 0.23 | CC(=O)O[C@H]1C(=O)[C@]2(C)CC[C@H]3OC[C@@]3(OC(C)=O)C2[C@H](OC(=O)c2ccccc2)[C@]2(O)C[C@H](OC(=O)[C@H](O)[C@@H](NC(=O)c3ccccc3)c3ccccc3)C(C)=C1C2(C)C (stereo partly drawn) | Max T/C [4]: 157
46 nM | 0.96 | CCCCNC(=O)OC1C[C@H]2OC[C@@]2(OC(C)=O)C2[C@H](OC(=O)c3ccccc3)[C@]3(O)C[C@H](OC(=O)[C@H](O)[C@@H](NC(=O)c4ccccc4)c4ccccc4)C(C)=C([C@@H](OC(C)=O)C(=O)[C@]12C)C3(C)C (stereo partly drawn) | 
6 nM | 0.72 | CCOC(=O)O[C@H]1C[C@H]2OC[C@@]2(OC(C)=O)C2[C@H](OC(=O)c3ccccc3)[C@]3(O)C[C@H](OC(=O)[C@H](O)[C@@H](NC(=O)c4ccccc4)c4ccccc4)C(C)=C([C@@H](OC(C)=O)C(=O)[C@@]21C)C3(C)C (stereo partly drawn) | Max T/C [6]: 289
> 100 nM | 0.4 | CC(=O)O[C@H]1C(=O)[C@]2(C)C(OC(=O)NCCN(C)C)C[C@H]3OC[C@@]3(OC(C)=O)C2[C@H](OC(=O)c2ccccc2)[C@]2(O)C[C@H](OC(=O)[C@H](O)[C@@H](NC(=O)c3ccccc3)c3ccccc3)C(C)=C1C2(C)C (stereo partly drawn) | 
 | 1.1 | CC(=O)O[C@H]1C(=O)[C@@]2(C)C([C@H](OC(=O)c3ccccc3)[C@]3(O)C[C@H](OC(=O)[C@H](O)[C@@H](NC(=O)c4ccccc4)c4ccccc4)C(C)=C1C3(C)C)[C@]1(OC(C)=O)CO[C@@H]1C[C@@H]2OS(C)(=O)=O (stereo partly drawn) | 
1.6 nM | 0.8 | CC(=O)O[C@H]1C(=O)[C@]2(C)CC[C@H]3OC[C@@]3(OC(C)=O)C2[C@H](OC(=O)c2ccccc2)[C@]2(O)C[C@H](OC(=O)[C@H](O)[C@@H](NC(=O)OC(C)(C)C)c3ccccc3)C(C)=C1C2(C)C (stereo partly drawn) | Max T/C [9]: 156
7 nM | 0.81 | CC(=O)O[C@H]1C(=O)[C@@]2(C)C([C@H](OC(=O)c3ccccc3)[C@]3(O)C[C@H](OC(=O)[C@H](O)[C@@H](NC(=O)c4ccccc4)c4ccccc4)C(C)=C1C3(C)C)[C@]1(OC(C)=O)CO[C@@H]1C[C@@H]2OC(=O)CCl (stereo partly drawn) | 
> 78 nM | 0.53 | CC[Si](CC)(CC)OC1C[C@H]2OC[C@@]2(OC(C)=O)C2[C@H](OC(=O)c3ccccc3)[C@]3(O)C[C@H](OC(=O)[C@H](O)[C@@H](NC(=O)c4ccccc4)c4ccccc4)C(C)=C([C@@H](OC(C)=O)C(=O)[C@]12C)C3(C)C (stereo partly drawn) | 
2 nM |  | CC(=O)O[C@H]1C(=O)[C@@]2(C)C([C@H](OC(=O)c3ccccc3)[C@]3(O)C[C@H](OC(=O)[C@H](O)[C@@H](NC(=O)c4ccccc4)c4ccccc4)C(C)=C1C3(C)C)[C@]1(OC(C)=O)CO[C@@H]1C[C@H]2O (stereo partly drawn) | Max T/C [11]: 126; Max T/C [12]: 154
